Source: patent US20030114382A1, “Glycogen synthase kinase function in endothelial cells” (priority 2001, published 2003)

Assays:
Akt phosphorylation = assay: Immunoblot of Akt phosphorylation in HUVECs; format: cell-based, human; settings: for Akt phosphorylation: HUVECs, single agent; for level of Akt phosphorylation: combined administration of PD98059 and SB203480, presence or absence of PI3K inhibition
Method: To examine the regulation of GSK3β phosphorylation, HUVECs were serum-starved for 15 hours, treated with the indicated agents for 1 hour, and stimulated with 10% fetal bovine serum.
Immunoblot analysis. HUVECs were washed in phosphate-buffered saline and harvested by scraping in 50 mM Tris-HCl (pH 7.2), 250 mM NaCl, 1% NP40, 0.05% SDS, 2 mM EDTA, 0.5% deoxycholic acid, 10 mM 13-glycerophosphate, 1 mM vanadate, 1 mM phenyl methyl sulfonyl fluoride (PMSF). One mini tablet of protease inhibitor cocktail (Roche, Summerville, N.J.) per 10 ml of lysis buffer, vanadate, and PMSF were added just prior to use. Protein concentration was determined with protein assay kit (Pierce, Rockford, Ill.). Protein (20 μg) was separated on SDS-polyacrylamide electrophoresis gel and transferred to a polyvinylidene difluoride membrane (Millipore, Bedford, Mass.). The membrane was blocked with T-PBS (1×PBS, 0.3% Tween-20) containing 3% dry milk and incubated with primary antibody overnight at 4° C. After three washes with T-PBS, the membrane was reblocked and incubated with secondary antibody for 1 hour at room temperature. ECL or ECL-PLUS (Amersham, Piscataway, N.J.) was used for detection. To reprobe the membrane, it was treated with Restore Western Blot stripping buffer (Pierce, Rockford, Ill.). The primary antibodies used were anti-phospho GSK-3β (Ser9) antibody (1:750 dilution, Cell Signaling Technology, Beverly, Mass.), anti-phospho Akt (Ser473) antibody (1:250 dilution, Cell Signaling Technology, Beverly, Mass.), anti-total GSK-3β antibody (1:1000 dilution, Santa Cruz, Santa Cruz, Calif.), and anti-a tubulin antibody (1:4000 dilution, Oncogene, Boston, Mass.). The secondary antibodies were anti-rabbit IgG/HRP conjugate or anti-mouse IgG/HRP conjugate (1:2500 dilution, Promega, San Luis Obispo, Calif.).

[1] = tested on: GSK3β phosphorylation at serine 9; assay: Immunoblot of GSK3β phosphorylation at serine 9 in HUVECs; format: cell-based, human; settings: for serum-induced phosphorylation of GSK3β: serum-starved HUVECs, 1 hour pretreatment with agent, 10% FBS 1 hour
Method: Cell culture and adenoviral vectors. Human umbilical vein ECs (HUVECs) were isolated as previously described (29) and cultured in EGM media (Clonetics, Walkersville, Md.). Four to six passage cells were used in this study. To examine the regulation of GSK3β phosphorylation, HUVECs were serum-starved for 15 hours, treated with the indicated agents for 1 hour, and stimulated with 10% fetal bovine serum.
Immunoblot analysis. HUVECs were washed in phosphate-buffered saline and harvested by scraping in 50 mM Tris-HCl (pH 7.2), 250 mM NaCl, 1% NP40, 0.05% SDS, 2 mM EDTA, 0.5% deoxycholic acid, 10 mM 13-glycerophosphate, 1 mM vanadate, 1 mM phenyl methyl sulfonyl fluoride (PMSF). One mini tablet of protease inhibitor cocktail (Roche, Summerville, N.J.) per 10 ml of lysis buffer, vanadate, and PMSF were added just prior to use. Protein concentration was determined with protein assay kit (Pierce, Rockford, Ill.). Protein (20 μg) was separated on SDS-polyacrylamide electrophoresis gel and transferred to a polyvinylidene difluoride membrane (Millipore, Bedford, Mass.). The membrane was blocked with T-PBS (1×PBS, 0.3% Tween-20) containing 3% dry milk and incubated with primary antibody overnight at 4° C. After three washes with T-PBS, the membrane was reblocked and incubated with secondary antibody for 1 hour at room temperature. ECL or ECL-PLUS (Amersham, Piscataway, N.J.) was used for detection. To reprobe the membrane, it was treated with Restore Western Blot stripping buffer (Pierce, Rockford, Ill.). The primary antibodies used were anti-phospho GSK-3β (Ser9) antibody (1:750 dilution, Cell Signaling Technology, Beverly, Mass.), anti-phospho Akt (Ser473) antibody (1:250 dilution, Cell Signaling Technology, Beverly, Mass.), anti-total GSK-3β antibody (1:1000 dilution, Santa Cruz, Santa Cruz, Calif.), and anti-a tubulin antibody (1:4000 dilution, Oncogene, Boston, Mass.).

Row | Structure (SMILES) | Akt phosphorylation (Akt phosphorylation) | level of Akt phosphorylation (Akt phosphorylation) | serum-induced phosphorylation of GSK3β [1] | induction of GSK3β phosphorylation by 8-bromo cAMP or forskolin ([1]; pretreatment with H89, serum-deprived HUVECs)
1 | COc1cccc(-c2cc(=O)c3ccccc3o2)c1N [PD98059] | not | detectably elevated | partially inhibited | –
2 | O=S(=O)(NCCNC/C=C/c1ccc(Br)cc1)c1cccc2cnccc12 [H89] | promoted | – | inhibited | blocked
3 | C[S+]([O-])c1ccc(-c2nc(-c3ccncc3)c(-c3ccc(F)cc3)[nH]2)cc1 (stereo not drawn) [SB203480] | not | detectably elevated | partially inhibited | –
